Source: publication PMC10589313 (Nature Communications, 2023)
Values joined by “and” are separate entries in the source; they are usually repeats but may differ in a detail not shown here. Equal values may be shown once.

Assays:
human H4R Y95A mutant = molecular target: T1, human H4R Y95A mutant (Homo sapiens, UniProt Q9H3N8, Y95A); experiment: TGFα shedding assay, H4R Y95A mutant; assay type: cell-based
T1 construct: a mutant H4R (human, full-length, and untagged); expressed in transfected cells; host or cells: HEK293A
Protocol: (§1) The mutants were prepared using the primers listed in Supplementary Table 2. […] The chimeric Gαq/i1 subunit comprises the Gαq backbone and Gαi1-derived six-amino acid C-terminus and couples with Gi-coupled H4R but induces a Gq-dependent TGFα shedding response. After culturing for 1 day and incubating at 37 °C in a 5% CO2 incubator, the transfected cells were harvested by trypsinization, neutralized with Dulbecco’s modified Eagle’s medium containing 10% fetal calf serum (FCS) and penicillin–streptomycin, washed once with Hank’s balanced salt solution (HBSS) containing 5 mM of HEPES (pH 7.4), and resuspended in 6 mL of the HEPES-containing HBSS. The cell suspension was seeded into a 96-well plate at a volume of […] per well (typically, 48 wells per transfected cells) and incubated for 30 min in the CO2 incubator. Test compounds (10×, diluted in 0.01% BSA and 5 mM of HEPES-containing HBSS, […] volume) were added to duplicate wells and incubated for 1 h. After centrifugation, the conditioned medium ([…]) was transferred to an empty 96-well plate. AP reaction solution [10 mM of p-nitrophenylphosphate (p-NPP), 120 mM of Tris–HCl (pH 9.5), 40 mM of NaCl, and 10 mM of MgCl2] was dispensed into the cell culture plates and plates containing conditioned media ([…]). Absorbance was measured at 405 nm before and after a 1-h incubation period at 25 °C using a microplate reader (iMark™ Microplate Absorbance Reader; BioRad). Ligand-induced AP-TGFα release was calculated as previously described. The vehicle-treated AP-TGFα release signal was set as a baseline unless otherwise specified. AP-TGFα release signals were fitted with a four-parameter sigmoidal concentration-response curve, from which EC50 and Emax values were obtained, using GraphPad Prism 9 software (GraphPad Prism). Negative values of logarithmically transformed EC50 values (pEC50) were used to calculate the mean and standard error of independent experiments.
(§2) All functional study data were analyzed using Prism 9 (GraphPad) and are presented as mean ± standard error of the mean (SEM) of three independent experiments. […]

H2R = conditions: in words; cited from earlier work
human H4R E182N mutant = molecular target: T2, human H4R E182N mutant (Homo sapiens, UniProt Q9H3N8, E182N); experiment: TGFα shedding assay, H4R E182N mutant; assay type: cell-based
T2 construct: a mutant H4R (human, full-length, and untagged); expressed in transfected cells; host or cells: HEK293A
Protocol: as §1, §2

human H4R F344A mutant = molecular target: T3, human H4R F344A mutant (Homo sapiens, UniProt Q9H3N8, F344A); experiment: TGFα shedding assay, H4R F344A mutant; assay type: cell-based
T3 construct: a mutant H4R (human, full-length, and untagged); expressed in transfected cells; host or cells: HEK293A
Protocol: (§3) The mutants were prepared using the primers listed in Supplementary Table 2. […] The chimeric Gαq/i1 subunit comprises the Gαq backbone and Gαi1-derived six-amino acid C-terminus and couples with Gi-coupled H4R but induces a Gq-dependent TGFα shedding response. After culturing for 1 day and incubating at 37 °C in a 5% CO2 incubator, the transfected cells were harvested by trypsinization, neutralized with Dulbecco’s modified Eagle’s medium containing 10% fetal calf serum (FCS) and penicillin–streptomycin, washed once with Hank’s balanced salt solution (HBSS) containing 5 mM of HEPES (pH 7.4), and resuspended in 6 mL of the HEPES-containing HBSS. The cell suspension was seeded into a 96-well plate at a volume of […] per well (typically, 48 wells per transfected cells) and incubated for 30 min in the CO2 incubator. Test compounds (10×, diluted in 0.01% BSA and 5 mM of HEPES-containing HBSS, […] volume) were added to duplicate wells and incubated for 1 h. […] Absorbance was measured at 405 nm before and after a 1-h incubation period at 25 °C using a microplate reader (iMark™ Microplate Absorbance Reader; BioRad). Ligand-induced AP-TGFα release was calculated as previously described. […]
as §2

human H4R N147A mutant = molecular target: T4, human H4R N147A mutant (Homo sapiens, UniProt Q9H3N8, N147A); experiment: TGFα shedding assay, H4R N147A mutant; assay type: cell-based; conditions: for EC50: EC50 (nM)
T4 construct: a mutant H4R (human, full-length, and untagged); expressed in transfected cells; host or cells: HEK293A
Protocol: as §1
(§4) All functional study data were analyzed using Prism 9 (GraphPad) and are presented as mean ± standard error of the mean (SEM) of three independent experiments. Statistical analyses were performed using Prism 9 (GraphPad) with one-way analysis of variance followed by Dunnett’s post-hoc test. Values with p < 0.05 are considered statistically significant.

human H4R C98A mutant = molecular target: T5, human H4R C98A mutant (Homo sapiens, UniProt Q9H3N8, C98A); experiment: TGFα shedding assay, H4R C98A mutant; assay type: cell-based
T5 construct: a mutant H4R (human, full-length, and untagged); expressed in transfected cells; host or cells: HEK293A
Protocol: as §1, §4

H3R = conditions: read-out: binding affinity for H3R; cited from earlier work
human H4R E182A mutant = molecular target: T6, human H4R E182A mutant (Homo sapiens, UniProt Q9H3N8, E182A); experiment: TGFα shedding assay, H4R E182A mutant; assay type: cell-based
T6 construct: a mutant H4R (human, full-length, and untagged); expressed in transfected cells; host or cells: HEK293A
Protocol: as §3, §2

human H4R Q347A mutant = molecular target: T7, human H4R Q347A mutant (Homo sapiens, UniProt Q9H3N8, Q347A); experiment: TGFα shedding assay, H4R Q347A mutant; assay type: cell-based
T7 construct: a mutant H4R (human, full-length, and untagged); expressed in transfected cells; host or cells: HEK293A
Protocol: as §1, §4

human H4R Q347G mutant = molecular target: T8, human H4R Q347G mutant (Homo sapiens, UniProt Q9H3N8, Q347G); experiment: TGFα shedding assay, H4R Q347G mutant; assay type: cell-based; conditions: for EC50: EC50 (nM)
T8 construct: a mutant H4R (human, full-length, and untagged); expressed in transfected cells; host or cells: HEK293A
Protocol: as §1, §4

[1] = Imetit (M) -5 (log concentration), raw replicate values

T1 sequence (Q9H3N8 whole entry Y95A): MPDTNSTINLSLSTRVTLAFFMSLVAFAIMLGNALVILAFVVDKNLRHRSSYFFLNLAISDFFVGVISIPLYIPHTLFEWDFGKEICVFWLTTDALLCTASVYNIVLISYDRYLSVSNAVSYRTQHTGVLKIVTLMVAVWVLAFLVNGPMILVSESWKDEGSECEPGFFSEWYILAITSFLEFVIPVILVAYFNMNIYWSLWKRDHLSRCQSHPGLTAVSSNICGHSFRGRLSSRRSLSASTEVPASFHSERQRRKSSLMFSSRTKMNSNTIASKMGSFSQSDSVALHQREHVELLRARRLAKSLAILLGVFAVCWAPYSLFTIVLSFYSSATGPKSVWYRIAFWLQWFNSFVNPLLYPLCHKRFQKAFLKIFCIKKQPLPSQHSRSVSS
T8 sequence (Q9H3N8 whole entry Q347G): as the sequence (Q9H3N8 whole entry Y95A) above, with A95Y, Q347G counted along it
T5 sequence (Q9H3N8 whole entry C98A): as the sequence (Q9H3N8 whole entry Y95A) above, with A95Y, C98A counted along it
T2 sequence (Q9H3N8 whole entry E182N): as the sequence (Q9H3N8 whole entry Y95A) above, with A95Y, E182N counted along it
T4 sequence (Q9H3N8 whole entry N147A): as the sequence (Q9H3N8 whole entry Y95A) above, with A95Y, N147A counted along it
T3 sequence (Q9H3N8 whole entry F344A): as the sequence (Q9H3N8 whole entry Y95A) above, with A95Y, F344A counted along it
T6 sequence (Q9H3N8 whole entry E182A): as the sequence (Q9H3N8 whole entry Y95A) above, with A95Y, E182A counted along it
T7 sequence (Q9H3N8 whole entry Q347A): as the sequence (Q9H3N8 whole entry Y95A) above, with A95Y, Q347A counted along it

In the case of N=C(N)SCCc1cnc[nH]1 [Imetit, imetit], the EC50 (human H4R Y95A mutant) is listed as greater than 10000 nM, the “Shedding assay response, Y95A” value (human H4R Y95A mutant; [1]) is listed as 0.2008 and 4.141 and 6.475 and 5.892 and -1.081 and 3.761 and 1.333 and 3.151 and 12.3655 and the “binding to H2R” value (H2R) is listed as “does not bind”. For the same compound, the EC50 (human H4R E182N mutant) was greater than 10000 nM, the “Shedding assay response, E182N” value (human H4R E182N mutant; [1]) was -0.3367 and 1.68 and -1.08 and 4.253 and 4.399 and 3.645 and 9.053 and 3.546 and 4.747 and the EC50 (human H4R F344A mutant) was greater than 10000 nM. The “Shedding assay response, F344A” value (human H4R F344A mutant; [1]) was 3.594 and 4.917 and 1.113 and -1.672 and 3.266 and -0.2412 and 0.127 and -2.198 and -1.529, the EC50 (human H4R N147A mutant; N147A mutant) was 116 nM and the EC50 (human H4R N147A mutant; N147A, single experiments, source data Figure 4e-f) was 137 nM and 107 nM and 104 nM. The “Shedding assay response, N147A” value (human H4R N147A mutant; [1]) was 17.6838 and 20.1153 and 13.587 and 17.1019 and 17.2369 and 16.9193 and 20.3122 and 17.3343 and 19.4779, the fold of change (human H4R N147A mutant; N147A mutant, EC50 relative to WT) was 3.9 fold and the Emax (human H4R N147A mutant; read-out: Emax (%) mean ± SEM) was 17.2 ± 0.52%. The EC50 (human H4R C98A mutant; C98A mutant) was 479 nM, the fold of change (human H4R C98A mutant; C98A mutant, EC50 relative to WT) was 16.3 fold and the EC50 (human H4R C98A mutant; EC50 (nM), C98A mutant) was 486 nM. The “Shedding assay response, C98A” value (human H4R C98A mutant; [1]) was 13.5967 and 12.9858 and 12.6952 and 16.5163 and 19.8944 and 18.7443 and 18.3535 and 16.3047 and 17.1057, the Emax (human H4R C98A mutant; read-out: Emax (%) mean ± SEM) was 17.1 ± 1.72% and the Ki (H3R) was 0.3 nM. The EC50 (human H4R E182A mutant) was greater than 10000 nM, the “Shedding assay response, E182A” value (human H4R E182A mutant; [1]) was 0.5777 and -0.6527 and 0.544 and 1.716 and -0.08867 and -2.204 and 4.0352 and 2.359 and 1.291 and the EC50 (human H4R Q347A mutant; EC50 (nM), Q347A mutant) was 12.7 nM. For the same compound, the “Shedding assay response, Q347A” value (human H4R Q347A mutant; [1]) was 17.2563 and 18.9409 and 18.4053 and 16.608 and 19.8188 and 22.6245 and 22.4962 and 23.3465 and 23.6643, the fold of change (human H4R Q347A mutant; Q347A mutant, EC50 relative to WT) was 0.4 fold and the EC50 (human H4R Q347A mutant; pEC50 mean ± SEM, Q347A mutant) was 12.3 nM. The Emax (human H4R Q347A mutant; read-out: Emax (%) mean ± SEM) was 19.3 ± 1.1%, the EC50 (human H4R Q347G mutant; Q347G mutant) was 6.2 nM and the EC50 (human H4R Q347G mutant; Q347G, single experiments, source data Figure 4e-f) was 1.75 nM and 12.3 nM and 4.7 nM. The “Shedding assay response, Q347G” value (human H4R Q347G mutant; [1]) was 13.312 and 10.4592 and 11.4881 and 12.2257 and 13.3616 and 12.7037 and 13.9485 and 10.6151 and 26.3814.
